Tests used:
[1] = system: KRas-mediated phosphorylation of ERK in H727 cells; experiment: Inhibition of KRas-mediated phosphorylation of ERK (Cisbio HTRF pERK), H727 cells; type: cell-based; conditions: Homo sapiens, NCI-H727, H727 cells; HTRF pERK
Summary of the method: (§1)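 HTRF readout of phospho-ERK in cell lysates after 3 hrs of compound exposure. Dosing: 10 uM top, 3-fold steps, 10 doses, final DMSO 0.8%. Min control: 0.2 uM Trametinib. Lysis ran 40 mins at 4° C, and antibody detection 2 hrs at room temperature.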

[2] = system: KRas-mediated phosphorylation of ERK in H460 cells; experiment: Inhibition of KRas-mediated phosphorylation of ERK (Cisbio HTRF pERK), H460 cells; type: cell-based; conditions: Homo sapiens; for inhibition at 0.1 µM: NCI-H460, 3 h, single point, 100 nM compound, 3 hrs; for IC50: NCI-H460, HTRF pERK
Summary of the method: as §1

[3] = molecular target: T1, KRas^G12D (Homo sapiens, UniProt P01116, G12D); experiment: KRas binding assay (TR-FRET tracer displacement), KRas G12D
T1 construct: Biotinylated KRas (corresponding to amino acids 1-169, produced at Accelegan Inc.); biotin (biotinylated); purchased Accelegan Inc
T1 sequence (P01116 1-169 isoform P01116-2 G12D): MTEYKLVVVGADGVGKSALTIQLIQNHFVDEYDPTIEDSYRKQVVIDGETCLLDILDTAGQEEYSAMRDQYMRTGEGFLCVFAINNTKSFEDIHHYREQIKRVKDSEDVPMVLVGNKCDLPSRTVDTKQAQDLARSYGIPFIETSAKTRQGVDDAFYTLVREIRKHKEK

[4] = system: KRas-mediated phosphorylation of ERK in HCT116 cells; experiment: Inhibition of KRas-mediated phosphorylation of ERK (Cisbio HTRF pERK), HCT116 cells; type: cell-based; conditions: Homo sapiens; for inhibition at 0.1 µM: HCT-116, 3 h, single point, 100 nM compound, 3 hrs; for IC50: HCT-116, HTRF pERK
Summary of the method: (§2)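 A cell-based HTRF pERK assay: ten-point, threefold titrations beginning at 10 uM were applied for 3 hrs, with 0.2 uM Trametinib wells as the minimum control. Cells were lysed cold, and lysate was incubated with the antibody pair for 2 hrs before reading.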

[5] = system: KRas-mediated phosphorylation of ERK in PSN1 cells; experiment: Inhibition of KRas-mediated phosphorylation of ERK (Cisbio HTRF pERK), PSN1 cells; type: cell-based; conditions: Homo sapiens
Summary of the method: (§3)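 Seeding density was 6,000 cells/well; medium RPMI, 10% FBS. Read-out by homogeneous time-resolved fluorescence (pERK) after 4 hours covered at room temperature.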

[6] = system: KRas-mediated phosphorylation of ERK in AsPC-1 cells; experiment: Inhibition of KRas-mediated phosphorylation of ERK (Cisbio HTRF pERK), AsPC-1 cells; type: cell-based; conditions: Homo sapiens, ASPC1, AsPC-1 cells; HTRF pERK
Summary of the method: as §1

[7] = system: KRas-mediated phosphorylation of ERK in MKN1 cells; experiment: Inhibition of KRas-mediated phosphorylation of ERK (Cisbio HTRF pERK), MKN1 cells; type: cell-based; conditions: Homo sapiens, MKN-1
Summary of the method: as §3

[8] = molecular target: T2, KRas^G12R (Homo sapiens, UniProt P01116, G12R); experiment: KRas binding assay (TR-FRET tracer displacement), KRas G12R
T2 construct: Biotinylated KRas (corresponding to amino acids 1-169, produced at Accelegan Inc.); biotin (biotinylated); purchased Accelegan Inc
T2 sequence (P01116 1-169 isoform P01116-2 G12R): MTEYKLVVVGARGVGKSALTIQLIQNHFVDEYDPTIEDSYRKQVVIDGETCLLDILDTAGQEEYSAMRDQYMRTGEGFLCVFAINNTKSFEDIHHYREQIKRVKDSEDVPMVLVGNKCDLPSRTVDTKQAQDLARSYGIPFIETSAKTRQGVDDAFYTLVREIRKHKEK

[9] = molecular target: T3, KRas^G12V (Homo sapiens, UniProt P01116, G12V); experiment: KRas binding assay (TR-FRET tracer displacement), KRas G12V
T3 construct: Biotinylated KRas (corresponding to amino acids 1-169, produced at Accelegan Inc.); biotin (biotinylated); purchased Accelegan Inc
T3 sequence (P01116 1-169 isoform P01116-2 G12V): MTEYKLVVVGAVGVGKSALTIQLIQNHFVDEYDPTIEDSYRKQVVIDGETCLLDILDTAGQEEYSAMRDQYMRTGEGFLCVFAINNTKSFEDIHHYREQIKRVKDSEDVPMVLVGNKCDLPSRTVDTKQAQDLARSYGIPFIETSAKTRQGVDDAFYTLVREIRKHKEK

[10] = system: KRas-mediated phosphorylation of ERK in A549 cells; experiment: Inhibition of KRas-mediated phosphorylation of ERK (Cisbio HTRF pERK), A549 cells; type: cell-based; conditions: Homo sapiens, HTRF pERK
Summary of the method: as §2

Structure (SMILES)	IC50 [1] [nM]	inhibition at 0.1 µM [2] [%]	IC50 [3] [nM]	inhibition at 0.1 µM [4] [%]	IC50 [5] [nM]	IC50 [6] [nM]	IC50 [7] [nM]	IC50 [8] [nM]	IC50 [9] [nM]	IC50 [10] [nM]	IC50 [2] [nM]	IC50 [4] [nM]
CCc1c(F)ccc2c(Br)c(O)cc(-c3ncc4c(N5C[C@@H]6C[C@H](C5)[C@H](O)C6)nc(OC[C@@]56CCCN5C[C@H](F)C6)nc4c3F)c12 [Example 537, (1R,5R,6R)-3-(7-(4-bromo-8-ethyl-7-fluoro-3-hydroxynaphthalen-1-yl)-8-fluoro-2-(((2R,7aS)-2-fluorohexahydro-1H-pyrrolizin-7a-yl)methoxy)pyrido[4,3-d]pyrimidin-4-yl)-3-azabicyclo[3.2.1]octan-6-ol]	1180	29	407	2	> 10000	2020	1480	263	244	–	–	–
CCc1c(F)ccc2cc(O)cc(-c3ncc4c(/C=C/c5ccnn5C)nc(OC[C@@]56CCCN5C[C@H](F)C6)nc4c3F)c12 [Example 543, 5-ethyl-6-fluoro-4-(8-fluoro-2-(((2R,7aS)-2-fluorotetrahydro-1H-pyrrolizin-7a(5H)-yl)methoxy)-4-((E)-2-(1-methyl-1H-pyrazol-5-yl)vinyl)pyrido[4,3-d]pyrimidin-7-yl)naphthalen-2-ol]	1610	-1	1690	5	> 10000	> 10000	5950	354	152	–	–	–
CCc1c(F)ccc2cc(O)cc(-c3ncc4c(N5C[C@H](F)C[C@@H](OC)C5)nc(OC[C@@]56CCCN5C[C@H](F)C6)nc4c3F)c12 [Example 557, 5-ethyl-6-fluoro-4-(8-fluoro-4-((3R,5R)-3-fluoro-5-methoxypiperidin-1-yl)-2-(((2R,7aS)-2-fluorohexahydro-1H-pyrrolizin-7a-yl)methoxy)pyrido[4,3-d]pyrimidin-7-yl)naphthalen-2-ol]	216	–	12	–	> 10000	617	22	4	6	174	165	517
CCc1c(F)ccc2cc(O)cc(-c3ncc4c(N5CCCC(O)(C(N)=O)C5)nc(OC[C@@]56CCCN5C[C@H](F)C6)nc4c3F)c12 (stereo partly drawn) [Example 574, 1-(7-(8-ethyl-7-fluoro-3-hydroxynaphthalen-1-yl)-8-fluoro-2-(((2R,7aS)-2-fluorohexahydro-1H-pyrrolizin-7a-yl)methoxy)pyrido[4,3-d]pyrimidin-4-yl)-3-hydroxypiperidine-3-carboxamide]	1130	19	7	18	> 10000	3420	78	7	5	–	–	–
CCc1c(F)ccc2cc(O)cc(-c3ncc4c(N5CCCc6ncccc6C5)nc(OC[C@@]56CCCN5C[C@H](F)C6)nc4c3F)c12 [Example 579, 5-ethyl-6-fluoro-4-(8-fluoro-2-(((2R,7aS)-2-fluorotetrahydro-1H-pyrrolizin-7a(5H)-yl)methoxy)-4-(5,7,8,9-tetrahydro-6H-pyrido[3,2-c]azepin-6-yl)pyrido[4,3-d]pyrimidin-7-yl)naphthalen-2-ol]	369	–	5	–	> 10000	155	37	3	6	357	481	1780
CCc1c(F)ccc2cc(O)cc(-c3ncc4c(N5CCC(C)C(F)(F)CC5)nc(OC[C@@]56CCCN5C[C@H](F)C6)nc4c3F)c12 (stereo partly drawn) [Example 581, 4-(4-(4,4-difluoro-5-methylazepan-1-yl)-8-fluoro-2-(((2R,7aS)-2-fluorotetrahydro-1H-pyrrolizin-7a(5H)-yl)methoxy)pyrido[4,3-d]pyrimidin-7-yl)-5-ethyl-6-fluoronaphthalen-2-ol]	1170	-24	160	21	> 10000	1370	527	41	39	–	–	–
CCc1c(F)ccc2cc(O)cc(-c3ncc4c(N5CCC(Cn6cccn6)C5)nc(OC[C@@]56CCCN5C[C@H](F)C6)nc4c3F)c12 (stereo partly drawn) [Example 587, 4-(4-(3-((1H-pyrazol-1-yl)methyl)pyrrolidin-1-yl)-8-fluoro-2-(((2R,7aS)-2-fluorotetrahydro-1H-pyrrolizin-7a(5H)-yl)methoxy)pyrido[4,3-d]pyrimidin-7-yl)-5-ethyl-6-fluoronaphthalen-2-ol]	3090	6	323	-12	> 10000	2070	926	74	64	–	–	–
CCc1c(F)ccc2cc(O)cc(-c3ncc4c(N5CCCC(C6(O)CCC6)C5)nc(OC[C@@]56CCCN5C[C@H](F)C6)nc4c3F)c12 (stereo partly drawn) [Example 593, 5-ethyl-6-fluoro-4-(8-fluoro-2-(((2R,7aS)-2-fluorotetrahydro-1H-pyrrolizin-7a(5H)-yl)methoxy)-4-(3-(1-hydroxycyclobutyl)piperidin-1-yl)pyrido[4,3-d]pyrimidin-7-yl)naphthalen-2-ol]	391	0	72	-4	> 10000	1230	293	7	10	–	–	–
CCc1c(F)ccc2cc(O)cc(-c3ncc4c(N5CCCC6(CNS(=O)(=O)C6)C5)nc(OC[C@@]56CCCN5C[C@H](F)C6)nc4c3F)c12 (stereo partly drawn) [Example 644, 7-(7-(8-ethyl-7-fluoro-3-hydroxynaphthalen-1-yl)-8-fluoro-2-(((2R,7aS)-2-fluorohexahydro-1H-pyrrolizin-7a-yl)methoxy)pyrido[4,3-d]pyrimidin-4-yl)-2-thia-3,7-diazaspiro[4.5]decane 2,2-dioxide]	340	–	3	–	2620	147	10	< 2	< 2	299	160	411
CCc1c(F)ccc2cc(O)cc(-c3ncc4c(N[C@@H](C)c5cc(C(=O)N(C)C)nn5C)nc(OC[C@@]56CCCN5C[C@H](F)C6)nc4c3F)c12 [Example 650, 5-((S)-1-((7-(8-ethyl-7-fluoro-3-hydroxynaphthalen-1-yl)-8-fluoro-2-(((2R,7aS)-2-fluorohexahydro-1H-pyrrolizin-7a-yl)methoxy)pyrido[4,3-d]pyrimidin-4-yl)amino)ethyl)-N,N,1-trimethyl-1H-pyrazole-3-carboxamide]	162	–	14	–	> 10000	1320	256	3	< 2	847	–	2410
CCc1c(F)ccc2cc(O)cc(-c3ncc4c(N5CCCc6nc(C(=O)N(C)C)ccc6C5)nc(OC[C@@]56CCCN5C[C@H](F)C6)nc4c3F)c12 [Example 666, 6-(7-(8-ethyl-7-fluoro-3-hydroxynaphthalen-1-yl)-8-fluoro-2-(((2R,7aS)-2-fluorohexahydro-1H-pyrrolizin-7a-yl)methoxy)pyrido[4,3-d]pyrimidin-4-yl)-N,N-dimethyl-6,7,8,9-tetrahydro-5H-pyrido[3,2-c]azepine-2-carboxamide]	320	59	< 2	24	> 10000	184	18	< 2	2	207	–	–
CCc1c(F)ccc2cc(O)cc(-c3ncc4c(N5CCC[C@@](C)(O)C5)nc(OCC5(CNC)CC5)nc4c3F)c12 [Example 696, (R)-1-(7-(8-ethyl-7-fluoro-3-hydroxynaphthalen-1-yl)-8-fluoro-2-((1-((methylamino)methyl)cyclopropyl)methoxy)pyrido[4,3-d]pyrimidin-4-yl)-3-methylpiperidin-3-ol]	948	21	< 2	5	> 10000	690	123	3	< 2	–	–	–

Source: patent US20260015350A1, “AZAQUINAZOLINE PAN-KRAS INHIBITORS” (Mirati Therapeutics, Inc., priority 2022, published 2026)
